ChEMBL document CHEMBL5346934 (J Med Chem, 2023)
Values after ≈ are worked out from the molar mass of the structure shown.

Tests used:
Vaccinia virus [1] = assay: Antiviral activity against wild type Vaccinia virus IHD infected in monkey Vero cells assessed as reduction in plaque formation measured after 7 days; format: functional, organism-based; conditions: Orthopoxvirus vaccinia, 168 h
Vaccinia virus [2] = assay: Antiviral activity against Vaccinia virus IHD infected in African green monkey Vero cells assessed as reduction in plaque formation measured after 7 days; format: functional, organism-based; conditions: Orthopoxvirus vaccinia, 168 h
Cowpox virus [3] = assay: Antiviral activity against Cowpox virus Grishak infected in African green monkey Vero cells; format: functional, organism-based
[4] = Inhibition of D4 receptor (unknown origin); parameters: species or system Homo sapiens
Vaccinia virus [5] = assay: Antiviral activity against Vaccinia virus Copenhagen infected in African green monkey Vero cells; format: functional, organism-based; conditions: Orthopoxvirus vaccinia
Vaccinia virus [6] = assay: Antiviral activity against Vaccinia virus infected in African green monkey Vero cells assessed as reduction virus induced cytopathic effect incubated for 24 hrs by MTT assay; format: functional, organism-based; conditions: Orthopoxvirus vaccinia
Vaccinia virus [7] = assay: Antiviral activity against wild type Vaccinia virus infected in African monkey Vero cells measured after 5 days by MTT assay; format: functional, organism-based; conditions: Orthopoxvirus vaccinia, 120 h
Vaccinia virus [8] = assay: Antiviral activity against Vaccinia virus Copenhagen infected in HFF cells measured after 3 days by colorimetric assay; format: functional, organism-based; conditions: Orthopoxvirus vaccinia, 72 h
Cowpox virus [9] = assay: Antiviral activity against Cowpox virus Brighton infected in Vero cells measured after 4 days by colorimetric assay; format: functional, organism-based; conditions: 96 h
Camelpox virus = assay: Antiviral activity against Camelpox virus infected in human HEL cells assessed as reduction in virus-induced cytopathic effect measured after 5 days by microscopic analysis; format: functional, organism-based; conditions: 120 h
Vaccinia virus [10] = assay: Antiviral activity against Vaccinia virus Lister infected in human HEL cells assessed as virus-induced cytopathic effect measured after 5 days by microscopic analysis; format: functional, organism-based; conditions: Orthopoxvirus vaccinia, 120 h
Vaccinia virus [11] = assay: Antiviral activity against Vaccinia virus infected in African green monkey Vero cells incubated for 24 hrs; format: functional, organism-based; conditions: Orthopoxvirus vaccinia
Vaccinia virus [12] = assay: Antiviral activity against Vaccinia virus infected in African green monkey Vero cells; format: functional, organism-based; conditions: Orthopoxvirus vaccinia
Vaccinia virus [13] = assay: Antiviral activity against Vaccinia virus infected in human HFF cells; format: functional, organism-based; conditions: Orthopoxvirus vaccinia
Vaccinia virus [14] = assay: Antiviral activity against Vaccinia virus WR-GFP infected in BSC40 cells assessed as reduction in plaque formation measured after 72 hrs by crystal violet staining based analysis; format: functional, organism-based; conditions: Orthopoxvirus vaccinia, BSC-40, 72 h
Vaccinia virus [15] = assay: Antiviral activity against Vaccinia virus IHD-J infected in BSC40 cells assessed as reduction in plaque formation measured after 72 hrs by crystal violet staining based analysis; format: functional, organism-based; conditions: Orthopoxvirus vaccinia, BSC-40, 72 h
Vaccinia virus [16] = assay: Antiviral activity against Vaccinia virus GFP infected in green […] cells assessed as reduction in plaque formation measured after 2.5 days by microscopic analysis; format: functional, organism-based; conditions: Orthopoxvirus vaccinia, HT-1080, 60 h
Vaccinia virus [17] = assay: Antiviral activity against Vaccinia virus GFP infected in green monkey CV-1 cells assessed as reduction in plaque formation measured after 2.5 days by microscopic analysis; format: functional, organism-based; conditions: Orthopoxvirus vaccinia, CV-1, 60 h
Cowpox virus [18] = assay: Antiviral activity against Cowpox virus Brighton infected in human HFF cells assessed as assessed as reduction in virus-induced cytopathic effect incubated for 7 days by microscopic analysis; format: functional, organism-based; conditions: 168 h
Vaccinia virus [19] = assay: Antiviral activity against Vaccinia virus Copenhagen infected in human HFF cells assessed as assessed as reduction in virus-induced cytopathic effect incubated for 7 days by microscopic analysis; format: functional, organism-based; conditions: Orthopoxvirus vaccinia, 168 h
Monkeypox virus [20] = assay: Antiviral activity against Monkeypox virus Zr-599 infected in African green monkey Vero E6 cells assessed as reduction in plaque formation measured after 72 hrs by microscopic analysis; format: functional, organism-based; conditions: Zr-599, Vero C1008, 72 h
[21] = Cytotoxicity against African green monkey VERO cells assessed as inhibition of cell growth incubated for 24 hrs by MTT assay; format: toxicity, cell-based; conditions: chlorocebus sabaeus
Vaccinia virus [22] = assay: Antiviral activity against Vaccinia virus infected in Vero cells measured after 4 days by colorimetric assay; format: functional, organism-based; conditions: Orthopoxvirus vaccinia, 96 h
Monkeypox virus [23] = assay: Antiviral activity against Monkeypox virus V79-1-005 infected in Vero cells measured after 4 days by colorimetric assay; format: functional, organism-based; conditions: V79-1-005, Vero, 96 h
Ectromelia virus [24] = assay: Antiviral activity against ectromelia virus K-1 infected in Vero cells measured after 4 days by colorimetric assay; format: functional, organism-based; conditions: K-1, Vero, 96 h
Vaccinia virus [25] = assay: Antiviral activity against Vaccinia virus infected in monkey BSC40 cells assessed as reduction in virus-induced cytopathic effect; format: functional, organism-based; conditions: Orthopoxvirus vaccinia, BSC-40
Ectromelia virus [26] = assay: Antiviral activity against ectromelia virus K-1 infected in Vero cells; format: functional, organism-based; conditions: K-1, Vero
Vaccinia virus [27] = assay: Antiviral activity against Vaccinia virus infected in human HFF cells assessed as reduction in plaque formation measured after 7 days by colorimetric assay; format: functional, organism-based; conditions: Orthopoxvirus vaccinia, 168 h

Structure (SMILES): C=C(CC)C(=O)c1ccc(OCC(=O)O)c(Cl)c1Cl [ETHACRYNIC ACID]
- EC50 (Vaccinia virus [1]): 40 µM
- EC50 (Vaccinia virus [2]): 20 µM

Structure (SMILES): CCC(C(=O)Nc1sc(C(N)=O)c(C)c1C(=O)OC)c1ccccc1 (centres undefined)
- EC50 (Cowpox virus [3]): 8.4 µM
- IC50 [4]: 13.4 µM
- EC50 (Vaccinia virus [5]): 18.7 µM
- EC50 (Vaccinia virus [6]): 19.7 µM

Structure (SMILES): O=c1[nH]c(=O)n([C@H]2C[C@H](O)[C@@H](CO)S2)cc1I
- EC50 (Vaccinia virus [7]): 0.05 µM
- EC50 (Vaccinia virus [8]): 0.5 µM

Structure (SMILES): Cc1cn([C@@]2(C)C[C@H](O)[C@@H](CO)S2)c(=O)[nH]c1=O
- EC50 (Cowpox virus [9]): 0.48 µM
- EC50 (Vaccinia virus [7]): 0.8 µM
- EC50 (Vaccinia virus [8]): 0.48 µM
- EC50 (Camelpox virus): 0.79 µM
- EC50 (Vaccinia virus [10]): 0.41 µM

Structure (SMILES): CCc1ccc(S(=O)(=O)c2ccc(Cl)cc2)cc1
- EC50 (Vaccinia virus [11]): 18.6 µM

Structure (SMILES): CC1(C)[C@H]2CC[C@]1(C)[C@H](OC(=O)CCCN1CCOCC1)C2
- IC50 (Vaccinia virus [12]): 7.95 µM

Structure (SMILES): CO[C@H]1/C=C/O[C@@]2(C)Oc3c(C)c(O)c4c(O)c(c(/C=N/N5CCN(C)CC5)c(O)c4c3C2=O)NC(=O)/C(C)=C\C=C\[C@H](C)[C@H](O)[C@@H](C)[C@@H](O)[C@@H](C)[C@H](OC(C)=O)[C@@H]1C [RIFAMPIN]
- IC50 (Vaccinia virus [13]): ~100 µg/mL (≈ 122 µM)

Structure (SMILES): O=C1CN(C(=O)c2nccs2)C(c2cccc(Cl)c2)c2cc(Br)ccc2N1 (centres undefined)
- IC50 (Vaccinia virus [14]): 1.3 µM
- EC50 (Vaccinia virus [15]): 0.5 µM

Structure (SMILES): O=[N+]([O-])c1cc(/C=N/c2ccccc2/N=C/c2ccc(O)c(O)c2)ccc1O
- EC50 (Vaccinia virus [16]): 10.9 µM
- EC50 (Vaccinia virus [17]): 13.2 µM

Structure (SMILES): O=S(=O)(c1ccc(C2=CSC(Nc3ccc(F)cc3)N2CCCCCCO)cc1)N1CCCC1 (centres undefined)
- EC50 (Cowpox virus [18]): 4.5 µM
- EC50 (Vaccinia virus [19]): 4.6 µM

Structure (SMILES): CC(C)C(=O)OC[C@H]1O[C@@H](n2cc/c(=N\O)[nH]c2=O)[C@H](O)[C@@H]1O [MOLNUPIRAVIR]
- EC50 (Monkeypox virus [20]): 1.35 µM

Structure (SMILES): Cc1cn([C@H]2C[C@H](O)[C@]3(CO)C[C@H]23)c(=O)[nH]c1=O [(NORTH)-METHANOCARBATHYMIDINE]
- IC50 (Cowpox virus [9]): 1.5 µM
- IC50 (Vaccinia virus [8]): 0.55 µM

Structure (SMILES): CC1(C)[C@@H]2CC[C@@]1(C)/C(=N/Nc1nc(-c3ccc(Br)cc3)cs1)C2
- CC50 at 24 h [21]: 77.1 µM

Structure (SMILES): O=C(NNC(=O)C1C2C=CC(C3CC23)C1C(=O)O)c1ccc(C(F)(F)F)cc1 (centres undefined)
- EC50 (Vaccinia virus [22]): 0.001 µg/mL (≈ 0.00254 µM)
- EC50 (Monkeypox virus [23]): 0.013 µg/mL (≈ 0.033 µM)
- EC50 (Ectromelia virus [24]): 0.011 µg/mL (≈ 0.0279 µM)

Structure (SMILES): COc1ccc(CCNC(=O)c2cc3ccccc3cc2O)cc1-c1ccc([N+](=O)[O-])cc1
- EC50 (Vaccinia virus [25]): 12 µM

Structure (SMILES): CC1(C)[C@@H]2CC[C@@]1(C)C(NC(=O)c1ccc([N+](=O)[O-])cc1)C2 (some centres undefined)
- EC50 (Cowpox virus [3]): 1.4 µM
- EC50 (Ectromelia virus [26]): 0.41 µM
- EC50 (Vaccinia virus [5]): 0.03 µM

Structure (SMILES): CC[C@H](CO)Nc1nc(NCc2ccccc2O)c2ncn(C(C)C)c2n1 [OLOMOUCINE II]
- EC50 (Vaccinia virus [27]): 3.8 µM
